Values joined by “and” are separate entries in the source; they are usually repeats but may differ in a detail not shown here. Equal entries are not always repeated.
Legend:
[1] = system: PDBu receptor (phorboid receptor) of murine brain membranous fraction (BMF); assay: PDBu binding inhibiting activity (PBIA): inhibition of 3H-PDBu binding to murine brain membranous fraction; set-up: species or system murine (mouse, NFS strain)
Experimental: Pooled murine brains from approximately 2 month old mice, NFS strain, were minced with scissors, suspended in 1 mM triethanolamine-HCl, pH 7.4, and disrupted with a polytron P-10 (Brinkman). This and all subsequent steps were performed at 4° C. The homogenate was centrifuged for 10 minutes at 1700 xg; the supernate was removed and centrifuged for 60 minutes at 105,000 xg. The resulting pellet was suspended in one-fourth of the initial volume of PBS. The suspension was aliquoted into a small volume and stored at -70° C.
The binding of ^3 H-PDBu to BMF or soluble receptors was performed in duplicate in 12×75 mm disposable glass tubes (Kimax) both in the absence and presence of 20 μg/ml unlabeled PDBu; the binding mixture contained 5 ng of ^3 H-PDBu (4×10^4 cpm), 0.2% final concentration of DMSO and BMF (50 μg protein) or soluble receptors in a total volume of 0.25 ml binding buffer (BB) consisting of Dulbecco's minimum essential medium (DMEM) containing bovine serum albumin (BSA 1 mg/ml) and N,N,-bis-(2-hydroxyethyl)-2-amino-ethane sulfonic acid (BES, 5 mM), adjusted to pH 6.8. After incubation for 30 minutes at 23° C. the tubes were chilled, 0.5 ml cold 4% calf serum (Colorado Serum Co., Denver, Colo.) and 0.7 ml cold polyethylene glycol (PEG 6,000) in 1 mM Tris-HCl, pH 7.4 was added to each tube, the contents vortexed, the tubes allowed to stand for 15 min at 4° C., and centrifuged for 10 in at 1500 xg at 4° C. The supernatant solution was carefully aspirated off, the pellet suspended in 2.5 ml of cold 10% PEG in 0.1M Tris-HCl, pH 7.4, containing 0.5% SDS and 1 mM EDTA). The mixture was transferred to counting vials and 10 ml of Aquassure (NEN) was added to each vial. The vials were vigorously shaken and radioactivity determined using a Beckman beta counter. The radioactivity bound in the presence of 20 μg/ml (50-200 cpm) unlabeled PDBu was considered to be nonspecific and all data were corrected accordingly.
The loss of the ability of ^3 H-PDBu to bind to receptors in the presence of ligand was used as the measure of inhibiting activity. PDBu binding inhibition assays were performed as described above, except the test materials were added to the reaction mixture and binding measured as described above.
The PBIA of ligand was equated with that of PDBu by the use of the term ng equivalent calculated from a plot of [^3 H]PDBu bound versus the log molar concentration for several biologically active phorbol esters (2). The curve corresponding to PDBu inhibition of PDBu binding was used by reading the molar concentration corresponding to the percent of control binding of [^3 H]PDBu in the presence of ligand to obtain the units ng PDBu equivalent of ligand.

[2] = system: purified phorboid receptor (serine-protein kinase); assay: Protein kinase activity of purified phorboid receptor; format: biochemical, murine
Experimental: In the final volume of 0.25 ml, the reaction mixture in duplicate contained 5 μmol Tris-HCl (pH 7.4), 1 μmol MgCl2, 50 μg histone, 0.12 nmol [-^32 P] ATP (8×10^6 cpm at arrival) and an appropriate amount of purified receptor protein. The reaction was carried out for 15 min at 23° C. The phosphorylated proteins were precipitated with 5% cold TCA, using BSA (250 μg) as carrier. The mixture in the tubes was allowed to settle at 4° C. for 15-30 min. Precipitates were collected on cellulose nitrate filters (0.45 μm) and washed with 75 ml of cold 5% TCA. Filters were dried and counted in Betafluor scintillation fluid.
Purified phorboid receptor from murine brain was purified to homogeneity and shown that the purified receptor is a serine-protein kinase (Shoyab, Cell Proliferation (CSH Laboratory) (1984) 11:253-262). The effect of PBIL on this protein kinase was tested. […] At higher concentration the kinase activity was inhibited (Table 4).
The assay conditions were the same as described in the text except the indicated amount of PBIL and 25 ng of purified receptor protein (Shoyab, Cell Proliferation (CSH Laboratory) (1984) 11:253-262) were used.

[3] = system: arachidonic acid cascade; assay: Stimulation of arachidonic acid cascade: release of radioactivity from cells labeled with radioactive arachidonic acid; format: cell-based
Excerpt: (§1) The release of radioactivity into the medium from cells previously labeled with radioactive arachidonic acid was used as a measure of activation of eicosanoids pathway. […] PBIL from all sources inhibited PDBu-receptor interaction.

[4] = system: arachidonic acid cascade in mink lung cells; assay: Activation of arachidonic acid cascade in mink lung cells; format: cell-based
Excerpt: as §1

[5] = concentration 0.4 (unit not given)
[6] = concentration 0.8 (unit not given)
[7] = concentration 0.2 (unit not given)

Row | SMILES | Inhibition of binding of PDBu to its receptor [1, 5] | Inhibition of binding of PDBu to its receptor [1, 6] | also measured
1 | CCCCCCCCCCCCCCCC(=O)OCC(O)CO (stereo not drawn) [1-Monopalmitin, 1-monopalmitin] | – | -6% and -15% | –
2 | CCCCCCCCCCCCCC(=O)O[C@@H]1[C@@H](C)[C@@]2(O)[C@@H](C=C(CO)C[C@]3(O)C(=O)C(C)=C[C@@H]23)[C@@H]2C(C)(C)[C@]12OC(C)=O [TPA, 12-0-tetradecanoylphorbol-13-acetate] | – | – | Stimulation of protein kinase activity (in words) [2]: stimulated the kinase activity
3 | CCCCCCCCCCCCCC(=O)OCC(O)CO (stereo not drawn) [1-Monomyristin, reference compound] | 0% | – | –
4 | CCCCC/C=C\C/C=C\C/C=C\C/C=C\CCCC(=O)OCC(O)CO (stereo not drawn) [1-Monoarachidonin, 1-monoarachidonin] | 91% | 95% | Inhibition of / competition for PDBu binding to receptor (in words) [1]: compete with phorbol dibutyrate for its receptor; Inhibition of binding of PDBu to its receptor [1, 7]: 41%; Stimulation of arachidonic acid cascade (release of radioactivity into the medium) [3]: stimulate the arachidonic acid cascade
5 | CCCCCCCC/C=C\CCCCCCCC(=O)OCC(CO)OC(=O)CCCCCCC/C=C\CCCCCCCC (stereo not drawn) [1,2-Diolein, reference compound] | – | 20% | –
6 | CCCCCCCC/C=C\CCCCCCCC(=O)OCC(O)COC(=O)CCCCCCC/C=C\CCCCCCCC [1,3-Diolein, reference compound] | – | 11% | –
7 | CCCCC/C=C\C/C=C\CCCCCCCC(=O)OCC(O)COC(=O)CCCCCCC/C=C\C/C=C\CCCCC [1,3-Dilinolein, reference compound] | – | 15% | –
8 | CCCCCCCCCCCCCC(=O)OCC(O)COC(=O)CCCCCCCCCCCCC [1,3-Dimyristin, reference compound] | 1% | – | –
9 | CCCCCCCCCCCCCCCC(=O)OCC(O)COC(=O)CCCCCCCCCCCCCCC [1,3-Dipalmitin, reference compound] | – | -12% | –
10 | CCCCCCCC/C=C\CCCCCCCC(=O)OCC(O)CO (stereo not drawn) [1-Monoolein, 1-monoolein] | 21% | 63% | –
11 | CCCCC/C=C\C/C=C\CCCCCCCC(=O)OC[C@@H](O)CO [1-Monolinolein, 1-monolinolein] | 82% | 94% | Inhibition of / competition for PDBu binding to receptor (in words) [1]: compete with phorbol dibutyrate for its receptor; Inhibition of binding of PDBu to its receptor [1, 7]: 39%; Activation of arachidonic acid cascade [4]: activated the arachidonic acid cascade in mink lung cells in a dose- and time-dependent manner; Stimulation of arachidonic acid cascade (release of radioactivity into the medium) [3]: stimulate the arachidonic acid cascade
12 | CC/C=C\C/C=C\C/C=C\CCCCCCCC(=O)OCC(O)CO (stereo not drawn) [1-Monolinolenin, 1-monolinolenin] | 74% | 94% | Inhibition of binding of PDBu to its receptor [1, 7]: 27%
13 | CCCCCC/C=C\CCCCCCCC(=O)OCC(O)CO (stereo not drawn) [1-Monopalmitolein, 1-monopalmitolein] | 36% | 82% | Inhibition of / competition for PDBu binding to receptor (in words) [1]: compete with phorbol dibutyrate for its receptor; Stimulation of arachidonic acid cascade (release of radioactivity into the medium) [3]: stimulate the arachidonic acid cascade

More lines, main results first:

Row | Inhibition of binding of PDBu to its receptor [1, 5] | Inhibition of binding of PDBu to its receptor [1, 6] | SMILES | also measured
14 | 15% | – | CCCCCCCCCCCCCC(=O)OCC(COC(=O)CCCCCCCCCCCCC)OC(=O)CCCCCCCCCCCCC [Trimystrin, reference compound] | –
15 | -11% | -8% | CCCCCCCCCCCCCCCC(=O)OCC(COC(=O)CCCCCCCCCCCCCCC)OC(=O)CCCCCCCCCCCCCCC [Tripalmitin, reference compound] | –
16 | – | -1% | CCCCC/C=C\C/C=C\CCCCCCCC(=O)OCC(COC(=O)CCCCCCC/C=C\C/C=C\CCCCC)OC(=O)CCCCCCC/C=C\C/C=C\CCCCC [Trilinolein, reference compound] | –
17 | 11% | – | CCCCCCCCCCCC(=O)OCC(COC(=O)CCCCCCCCCCC)OC(=O)CCCCCCCCCCC [Trilaurin, reference compound] | –
18 | 0% | – | OCC(O)CO [Glycerol, reference compound] | –
19 | 10% | 15% | CCCCC/C=C\C/C=C\CCCCCCCC(=O)O [Linoleic acid-Na, reference compound] | –

— patent US5077312A, “Biologically active lipids binding membrane receptors” (priority 1990, dated 1991)
